# Key:
# [1] = tested on: vasculature in the cochlea; settings: in vivo; cited from earlier work
# [2] = tested on: patients with Meniere's disease; settings: two patients with Meniere's disease, with furosemide; cited from earlier work
# [3] = tested on: endolymphatic duct structures / inner ear of pigmented guinea pigs; test: Intratympanic administration of latanoprost to guinea pigs: tolerability, brain stem audiometry and morphology of the endolymphatic duct structures; type: in vivo, guinea pig
# Protocol: Four pigmented guinea pigs of either sex weighing around 200-300 grams were anaesthetised with pentobarbital for intratympanic (into the middle ear) administration of latanoprost, and for brain stem audiometric measurements. The audiometric measurements were carried out at 8, 16 and 32 kHz frequency before and after the administration of latanoprost (58 μg/ml; a total of 250 μl/injection corresponding to about 14 μg latanoprost) and the vehicle. Latanoprost was administered once daily for three days into one ear, while the other ear received a similar injection of the vehicle only, and on the fourth day the animals were euthanatized with an overdose of the anaesthetic. The middle ears were dissected and the mucus membranes were inspected. Thereafter the inner ear was removed and the labyrinth was perfusion fixated through the oval and round windows with a 3% buffered glutaraldehyde solution. The tissues were then immersion fixated for about 24 hours in the same solution, and decalcified in 0.1 M sodium EDTA solution for about 2 weeks. The tissues were thereafter prepared according to routine techniques for light microscopy, and ultrathin sections of Epon-embedded tissue pieces were cut for transmission electron microscopy.
# Most importantly, in several animals clear-cut changes in the morphology around the endolymphatic duct were detected. […] These findings were corroborated by 3 persons. […] Similar effects have previously been seen in the ciliary muscle of the eye after topical treatment with latanoprost and other prostaglandins (Lütjen-Drecoll and Tamm, 1989; Lindsey et al., 1998; Stjernschantz et al., 1998).
# [4] = tested on: patients suffering from unilateral Meniere's disease; test: Randomised, double-masked, placebo-controlled crossover clinical trial with latanoprost in Meniere's disease; type: in vivo, human; settings: for vertigo, visual analogue scale: decreasing values reflecting improvement
# Protocol: During the priority year, a randomised, double-masked, placebo-controlled clinical trial was performed by the inventors of the present patent application. Nine patients (5 males and 4 females; age 39-65 years) suffering from unilateral Meniere's disease were treated daily for three consecutive days with latanoprost (around 50 micrograms/ml) or placebo adopting a crossover design. Accordingly, each patient was treated with both latanoprost and placebo in random order. Each treatment period lasted for 3 days, and after that the patients were examined at days 5 and 15 from the start of the treatment. Approximately 1 month elapsed between the two treatment periods (washout period). The treatment was given by intratympanic injection (around 0.2-0.8 ml) into the middle ear essentially as described above. Several parameters/symptoms were registered and followed, in particular the following: Pure tone average (decibels), discrimination value (%), tinnitus loudness (decibels), and by using visual analogue scale technique; subjective hearing ability, tinnitus and vertigo. The patients recorded the three last mentioned parameters daily, and the means over the periods 2-5 days and 2-15 days after initiation of treatment with latanoprost and placebo were computed.
# Such improvement was never observed during placebo treatment. At day 15 the mean discrimination value after latanoprost treatment was 68.2±7.2%, while it was 52.9±1.5% after placebo treatment, the difference of 29% being statistically significant at the p<0.05 level. Likewise, a statistically significant (p<0.01) improvement in pure tone average value at day 15 was found after latanoprost treatment in comparison to placebo, the values being 58.9±3.6 and 64.3±3.5 decibels, respectively (a lower value representing improvement). Finally, at least seven out of the nine patients experienced less vertigo both during the immediate period (days 2-5) after initiation of the latanoprost treatment as well as during a longer period (days 2-15) after the initiation of the latanoprost treatment. The values on the visual analogue scale (in mm; decreasing values reflecting improvement, i.e. less sensation of vertigo) were as follows: Days 2-5 latanoprost treatment: 22.4±9.1, and placebo treatment: 33.5±10.8 (p<0.05); Days 2-15 latanoprost treatment: 24.2±10.0 and placebo treatment: 34.2±11.4 (p<0.05).
# [5] = tested on: patients suffering from unilateral Meniere's disease; test: Local (intratympanic) administration of latanoprost to two patients suffering from Meniere's disease; type: in vivo, human; set-up: key to Tinnitus (grade): 0 = none; 1 = mild; 2 = moderate; 3 = marked; settings: for Tinnitus (grade): After (7 or 13 days after start of treatment), before: 3; for Acoustic emissions (%) 1 kHz / Acoustic emissions (%) 2 kHz / Acoustic emissions (%) 3 kHz / Acoustic emissions (%) 4 kHz / Acoustic emissions (%) 5 kHz / Acoustic emissions (%) Total reproducibility: After; for Acoustic emissions (%) 1 kHz / Acoustic emissions (%) 2 kHz / Acoustic emissions (%) 3 kHz / Acoustic emissions (%) 4 kHz / Acoustic emissions (%) 5 kHz: before: 0; for Subjective hearing ability: after treatment
# Protocol: […] About 0.3-0.4 ml of a sterile Xalatan® (0.005% latanoprost) solution was administered by intratympanic installation in close apposition to the round window after appropriate local anaesthesia. The patients were thereafter asked to lie on the side with the treated ear up for about 30 min to enhance the penetration of latanoprost into the internal ear. The patients had at least 40 decibel decrease in the audiogram at 0.5, 1 and 2 kHz frequency, at baseline before treatment with latanoprost. In addition they suffered from episodes of vertigo and nausea in combination with tinnitus. Audiograms, and cochlear emissions were recorded before the treatment and at the 7th or 13th day after the start of the treatment, and information about the subjective symptoms were collected.
# [6] = visual analogue scale, latanoprost vs placebo
# [7] = two patients, after administration
compound,measurement,setting,value
CCCCC[C@H](O)/C=C/[C@@H]1[C@@H](C/C=C\CCCC(=O)O)[C@@H](O)C[C@H]1O [PGF2α],effect on the vasculature in the cochlea,[1],no effect
COc1ccc2c(c1)c(CC(=O)O)c(C)n2C(=O)c1ccc(Cl)cc1 [indomethacin],effect on the discrimination score,[2],block the effect of furosemide
"CC(C)OC(=O)CCC/C=C\C[C@@H]1[C@@H](CC[C@@H](O)CCc2ccccc2)[C@H](O)C[C@@H]1O [latanoprost, 13,14-dihydro-17-phenyl-18,19,20-trinor-PGF2α-isopropyl ester]",brain stem audiograms,"[3]; guinea pig, 8, 16 and 32 kHz, before and after intratympanic administration",no changes that could be attributed to the treatment
same,morphology around the endolymphatic duct,"[3]; guinea pig, in several animals, zone around fibroblasts in loose connective tissue surrounding the duct",reduced density of the extracellular matrix
same,morphological changes in the cochlea including the organ of Corti with the hair cells,"[3]; guinea pig, intratympanic, about 14 μg once daily for three days",no morphological changes
same,inflammatory changes in the mucous membranes of the middle ear or in the tympanic membrane,"[3]; guinea pig, intratympanic, about 14 μg once daily for three days, examined day 4",No inflammatory changes
same,tolerability,"[3]; guinea pig, intratympanic, once daily for three days",well tolerated
same,"vertigo, visual analogue scale","[4]; Days 2-5, placebo 33.5±10.8, p<0.05",22.4±9.1 mm
same,"vertigo, visual analogue scale","[4]; Days 2-15, placebo 34.2±11.4, p<0.05",24.2±10.0 mm
same,patients (out of nine) who experienced less vertigo,[4]; both days 2-5 and days 2-15 after initiation of treatment,at least seven
same,cochlear emissions,[4]; clinical trial,variable results
same,difference in mean discrimination value versus placebo,"[4]; day 15, p<0.05",29%
same,mean discrimination value,"[4]; day 15, placebo 52.9±1.5%, p<0.05",68.2±7.2%
same,pure tone average value,"[4]; day 15, placebo 64.3±3.5, p<0.01, lower value representing improvement",58.9±3.6 decibels
same,improvement in discrimination value,"[4]; in three of the nine patients, after latanoprost treatment",25-50%
same,tinnitus loudness,[4]; latanoprost vs placebo,No statistically significant change
same,Subjective hearing ability,[4]; [6],No statistically significant change
same,subjective experience of tinnitus,[4]; [6],No statistically significant change
same,Tinnitus (grade),[5]; patient one,1
same,Acoustic emissions (%) 1 kHz,[5]; patient one,45%
same,Acoustic emissions (%) 2 kHz,[5]; patient one,0
same,Acoustic emissions (%) 3 kHz,[5]; patient one,42%
same,Acoustic emissions (%) 4 kHz,[5]; patient one,0
same,Acoustic emissions (%) 5 kHz,[5]; patient one,0
same,Acoustic emissions (%) Total reproducibility,"[5]; patient one, before: 5",37%
same,Subjective hearing ability,[5]; patient one,Improved
same,Tinnitus (grade),[5]; patient two,2
same,Acoustic emissions (%) 1 kHz,[5]; patient two,0%
same,Acoustic emissions (%) 2 kHz,[5]; patient two,57%
same,Acoustic emissions (%) 3 kHz,[5]; patient two,0%
same,Acoustic emissions (%) 4 kHz,[5]; patient two,0%
same,Acoustic emissions (%) 5 kHz,[5]; patient two,0%
same,Acoustic emissions (%) Total reproducibility,"[5]; patient two, before: 10",37%
same,Subjective hearing ability,[5]; patient two,Improved
same,audiograms,[5]; [7],no significant change
same,cochlear emissions,[5]; [7],significantly improved
same,patients' condition with respect to the tinnitus and hearing ability,[5]; [7],marked improvement

# Source: patent US7498360B2, “Method and compositions for local treatment of Meniere's disease, tinnitus and/or hearing loss” (Synphora AB, priority 2001, dated 2009)
